Assay [1] concerns HCV genotype 1a (H77 strain) replicon in HUH-7 cells. As to the kind of experiment: HCV replicon luciferase reporter assay, genotype 1a. It is filed as cell-based. The conditions noted are these: Hepatitis C virus, Huh-7, 72 h, HCV genotype 1a replicon luciferase, 3 days incubation, read-out: LE_1a (EC50, range). An outline of the steps:
(§1)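 Replicon inhibition for both genotypes was measured as Renilla luciferase signal (EnduRen, 7.5 μM final, 2 h) after 3-day, 37° C exposure of replicon-bearing HUH-7 cells in 4% FCS DMEM, 0.5% DMSO. The 1b construct carries S1179I; the 1a H77 construct carries P1496L and S2204I. Twenty-point, 3-fold dilutions were fitted four-parametrically for EC50, and CC50 was taken from multiplexed Cell Titer-Blue.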
In general terms: Replicon systems follow genome replication, usually without infectious particles.

For assay [2], the system named is HCV genotype 1b (Con1) replicon in HUH-7 cells. As to the kind of experiment: HCV replicon luciferase reporter assay, genotype 1b. To be noted: Hepatitis C virus, Huh-7, 72 h, HCV genotype 1b replicon luciferase, 3 days incubation, read-out: LE_1b (EC50, range). It is filed as cell-based. Put shortly: as §1

A word on the EC50: it is the midpoint of the concentration-response curve.

With `CCOc1cc2ccnc(O[C@@H]3C[C@H]4C(=O)N[C@]5(C(=O)NS(=O)(=O)C6(CF)CC6)C[C@H]5/C=C\CC[C@H](C)C[C@@H](C)[C@H](NC(=O)OC(C)(C)C)C(=O)N4C3)c2cc1F` [Compound 5410, tert-butyl ((2R,6S,7R,9S,13aS,14aR,16aS,Z)-2-((6-ethoxy-7-fluoroisoquinolin-1-yl)oxy)-14a-(((1-(fluoromethyl)cyclopropyl)sulfonyl)carbamoyl)-7,9-dimethyl-5,16-dioxo-1,2,3,5,6,7,8,9,10,11,13a,14,14a,15,16,16a-hexadecahydrocyclopropa[e]pyrrolo[1,2-a][1,4]diazacyclopentadecin-6-yl)carbamate], the EC50 in assay [1] lay in the range of 5.01 to 35 nM; in assay [2], 1.01 to 5 nM.
As for `CCOc1cc2ccnc(O[C@@H]3C[C@H]4C(=O)N[C@]5(C(=O)NS(=O)(=O)C6(CF)CC6)C[C@H]5/C=C\CC[C@@H](C)C[C@@H](C)[C@H](NC(=O)OC(C)(C)C)C(=O)N4C3)c2cc1F` [Compound 5411, tert-butyl ((2R,6S,7R,9R,13aS,14aR,16aS,Z)-2-((6-ethoxy-7-fluoroisoquinolin-1-yl)oxy)-14a-(((1-(fluoromethyl)cyclopropyl)sulfonyl)carbamoyl)-7,9-dimethyl-5,16-dioxo-1,2,3,5,6,7,8,9,10,11,13a,14,14a,15,16,16a-hexadecahydrocyclopropa[e]pyrrolo[1,2-a][1,4]diazacyclopentadecin-6-yl)carbamate], the EC50 in assay [1] is 1.01 to 5 nM; in assay [2] it was 0.51 to 1 nM.
As for `CCOc1cc2ccnc(O[C@@H]3C[C@H]4C(=O)N[C@]5(C(=O)NS(=O)(=O)C6(CF)CC6)C[C@H]5/C=C\CC[C@@H](C)C[C@@H](C)[C@H](NC(=O)OC(C)(C)C(F)(F)F)C(=O)N4C3)c2cc1F` [Compound 5413, 1,1,1-trifluoro-2-methylpropan-2-yl((2R,6S,7R,9R,13aS,14aR,16aS,Z)-2-((6-ethoxy-7-fluoroisoquinolin-1-yl)oxy)-14a-(((1-(fluoromethyl)cyclopropyl)sulfonyl)carbamoyl)-7,9-dimethyl-5,16-dioxo-1,2,3,5,6,7,8,9,10,11,13a,14,14a,15,16,16a-hexadecahydrocyclopropa[e]pyrrolo[1,2-a][1,4]diazacyclopentadecin-6-yl)carbamate], the EC50 in assay [1] is 1.01 to 5 nM; in assay [2], 0.51 to 1 nM.
With `CCOc1cc2ccnc(O[C@@H]3C[C@H]4C(=O)N[C@]5(C(=O)NS(=O)(=O)C6(CF)CC6)C[C@H]5/C=C\CC[C@@H](C)C[C@@H](C)[C@H](NC(=O)OC(C)(C)C(C)(F)F)C(=O)N4C3)c2cc1F` [Compound 5415, 3,3-difluoro-2-methylbutan-2-yl((2R,6S,7R,9R,13aS,14aR,16aS,Z)-2-((6-ethoxy-7-fluoroisoquinolin-1-yl)oxy)-14a-(((1-(fluoromethyl)cyclopropyl)sulfonyl)carbamoyl)-7,9-dimethyl-5,16-dioxo-1,2,3,5,6,7,8,9,10,11,13a,14,14a,15,16,16a-hexadecahydrocyclopropa[e]pyrrolo[1,2-a][1,4]diazacyclopentadecin-6-yl)carbamate], the EC50 in assay [1] was 1.01 to 5 nM; in assay [2], 0.51 to 1 nM.
Turning to `CC[C@@H]1C[C@H](C)CC/C=C\[C@@H]2C[C@@]2(C(=O)NS(=O)(=O)C2(C)CC2)NC(=O)[C@@H]2C[C@@H](Oc3ncc(N4CCOCC4)c4ccccc34)CN2C(=O)[C@H]1NC(=O)OC(C)(C)C` [Compound 5417], the EC50 in assay [1] and in assay [2] was 1.01 to 5 nM throughout.
Regarding `CC[C@@H]1C[C@H](C)CC/C=C\[C@@H]2C[C@@]2(C(=O)NS(=O)(=O)C2(C)CC2)NC(=O)[C@@H]2C[C@@H](Oc3ncc(N4CCOCC4)c4ccccc34)CN2C(=O)[C@H]1NC(=O)OC(C)(C)C(F)(F)F` [Compound 5419, 1,1,1-trifluoro-2-methylpropan-2-yl((2R,6S,7R,9R,13aS,14aR,16aS,Z)-7-ethyl-9-methyl-14a-(((1-methylcyclopropyl)sulfonyl)carbamoyl)-2-((4-morpholinoisoquinolin-1-yl)oxy)-5,16-dioxo-1,2,3,5,6,7,8,9,10,11,13a,14,14a,15,16,16a-hexadecahydrocyclopropa[e]pyrrolo[1,2-a][1,4]diazacyclopentadecin-6-yl)carbamate], the values for the EC50 in assay [1] and in assay [2] were 1.01 to 5 nM and 0.51 to 1 nM, respectively.
In the same order, the values of `C[C@@H]1CC/C=C\[C@@H]2C[C@@]2(C(=O)NS(=O)(=O)C2(C)CC2)NC(=O)[C@@H]2C[C@@H](Oc3ncc(N4CCOCC4)c4ccccc34)CN2C(=O)[C@@H](NC(=O)OC(C)(C)C)[C@H](C)C1` [Compound 5421, tert-butyl ((2R,6S,7R,9R,13aS,14aR,16aS,Z)-7,9-dimethyl-14a-(((1-methylcyclopropyl)sulfonyl)carbamoyl)-2-((4-morpholinoisoquinolin-1-yl)oxy)-5,16-dioxo-1,2,3,5,6,7,8,9,10,11,13a,14,14a,15,16,16a-hexadecahydrocyclopropa[e]pyrrolo[1,2-a][1,4]diazacyclopentadecin-6-yl)carbamate] are 1.01 to 5 nM and 0.51 to 1 nM.
Taken in the same sequence, the figures for `C[C@@H]1CC/C=C\[C@@H]2C[C@@]2(C(=O)NS(=O)(=O)C2(C)CC2)NC(=O)[C@@H]2C[C@@H](Oc3ncc(N4CCOCC4)c4ccccc34)CN2C(=O)[C@@H](NC(=O)OC(C)(C)C(F)(F)F)[C@H](C)C1` [Compound 5423, 1,1,1-trifluoro-2-methylpropan-2-yl((2R,6S,7R,9R,13aS,14aR,16aS,Z)-7,9-dimethyl-14a-(((1-methylcyclopropyl)sulfonyl)carbamoyl)-2-((4-morpholinoisoquinolin-1-yl)oxy)-5,16-dioxo-1,2,3,5,6,7,8,9,10,11,13a,14,14a,15,16,16a-hexadecahydrocyclopropa[e]pyrrolo[1,2-a][1,4]diazacyclopentadecin-6-yl)carbamate] were 1.01 to 5 nM and 0.51 to 1 nM.
On to `CC[C@@H]1C[C@H](C)CC/C=C\[C@@H]2C[C@@]2(C(=O)NS(=O)(=O)C2(CF)CC2)NC(=O)[C@@H]2C[C@@H](Oc3nccc4c5c(ccc34)OCCO5)CN2C(=O)[C@H]1NC(=O)OC(C)(C)C` [Compound 5425, tert-butyl ((2R,6S,7R,9R,13aS,14aR,16aS,Z)-2-((2,3-dihydro-[1,4]dioxino[2,3-f]isoquinolin-7-yl)oxy)-7-ethyl-14a-(((1-(fluoromethyl)cyclopropyl)sulfonyl)carbamoyl)-9-methyl-5,16-dioxo-1,2,3,5,6,7,8,9,10,11,13a,14,14a,15,16,16a-hexadecahydrocyclopropa[e]pyrrolo[1,2-a][1,4]diazacyclopentadecin-6-yl)carbamate], for which the EC50 in assay [1] and in assay [2] was 1.01 to 5 nM in each case.
As to `CC[C@@H]1C[C@H](C)CC/C=C\[C@@H]2C[C@@]2(C(=O)NS(=O)(=O)C2(CF)CC2)NC(=O)[C@@H]2C[C@@H](Oc3nccc4c5c(ccc34)OCCO5)CN2C(=O)[C@H]1NC(=O)OC(C)(C)C(F)(F)F` [Compound 5427, 1,1,1-trifluoro-2-methylpropan-2-yl((2R,6S,7R,9R,13aS,14aR,16aS,Z)-2-((2,3-dihydro-[1,4]dioxino[2,3-f]isoquinolin-7-yl)oxy)-7-ethyl-14a-(((1-(fluoromethyl)cyclopropyl)sulfonyl)carbamoyl)-9-methyl-5,16-dioxo-1,2,3,5,6,7,8,9,10,11,13a,14,14a,15,16,16a-hexadecahydrocyclopropa[e]pyrrolo[1,2-a][1,4]diazacyclopentadecin-6-yl)carbamate], the EC50 in assay [1] and in assay [2] was 5.01 to 35 nM each time.
On to `[2H]C([2H])([2H])C(OC(=O)N[C@@H]1C(=O)N2C[C@H](Oc3nccc4cc(OC)c(F)cc34)C[C@H]2C(=O)N[C@]2(C(=O)NS(=O)(=O)C3(C)CC3)C[C@H]2/C=C\CC[C@@H](C)C[C@H]1CC)(C([2H])([2H])[2H])C(F)(F)F` [Compound 5429], for which the EC50 in assay [1] and in assay [2] was 1.01 to 5 nM throughout.
In the case of `[2H]C([2H])([2H])C(OC(=O)N[C@@H]1C(=O)N2C[C@H](Oc3ncc(OC)c4ccccc34)C[C@H]2C(=O)N[C@]2(C(=O)NS(=O)(=O)C3(C)CC3)C[C@H]2/C=C\CC[C@@H](C)C[C@H]1CC)(C([2H])([2H])[2H])C(F)(F)F` [Compound 5431], the EC50 in assay [1] and in assay [2] was 1.01 to 5 nM throughout.
In the case of `[2H]C([2H])([2H])C(OC(=O)N[C@@H]1C(=O)N2C[C@H](Oc3ncc(OC)c4ccccc34)C[C@H]2C(=O)N[C@]2(C(=O)NS(=O)(=O)C3CC3)C[C@H]2/C=C\CC[C@@H](C)C[C@H]1CC)(C([2H])([2H])[2H])C(F)(F)F` [Compound 5433], the EC50 in assay [1] is 0.51 to 1 nM; in assay [2], 0.1 to 0.5 nM.
In the same order, the values of `CC[C@@H]1C[C@@H](C)CC/C=C\[C@@H]2C[C@@]2(C(=O)NS(=O)(=O)C2(C)CC2)NC(=O)[C@@H]2C[C@@H](Oc3nccc4cc(OC)c(F)cc34)CN2C(=O)[C@H]1NC(=O)OC(C)(C)C(C)(F)F` [Compound 5434, 3,3-difluoro-2-methylbutan-2-yl((2R,6S,7R,9S,13aS,14aR,16aS,Z)-7-ethyl-2-((7-fluoro-6-methoxyisoquinolin-1-yl)oxy)-9-methyl-14a-(((1-methylcyclopropyl)sulfonyl)carbamoyl)-5,16-dioxo-1,2,3,5,6,7,8,9,10,11,13a,14,14a,15,16,16a-hexadecahydrocyclopropa[e]pyrrolo[1,2-a][1,4]diazacyclopentadecin-6-yl)carbamate] are 1.01 to 5 nM and 1.01 to 5 nM.

(Values after patent US9499550B2 (BRISTOL-MYERS SQUIBB COMPANY, priority 2012, dated 2016).)
